Results reported in PubChem BioAssay AID1745844 (Carcinogenic Potency Database (CPDB), 2022).
Active and inactive are the calls of the source. No rule for the calls is given here.

System: rodent lifetime carcinogenesis bioassay, tumor incidence TD50
Test: chronic cancer bioassays in animals – CPDB, compiled studies (AID 1745844)

Molecule `CCCCCN(N=O)C(=O)OCC` has a TD50 (rat, strain Donryu, females, in drinking water, site: any site (literature study), lesion: several types, types named in the paper, dosed 52 weeks, study length 60 weeks) of 0.336 mg/kg/day, a TD50 (rat, strain Donryu, females, in drinking water, site: esophagus, lesion: papilloma, dosed 52 weeks, study length 60 weeks) of 1.46 mg/kg/day and a TD50 (rat, strain Donryu, females, in drinking water, site: esophagus, lesion: squamous-cell carcinoma, dosed 52 weeks, study length 60 weeks) of 1.01 mg/kg/day. It also gave a TD50 (rat, strain Donryu, females, in drinking water, site: forestomach, lesion: papilloma, dosed 52 weeks, study length 60 weeks) of 1.54 mg/kg/day, a TD50 (rat, strain Donryu, females, in drinking water, site: forestomach, lesion: squamous-cell carcinoma, dosed 52 weeks, study length 60 weeks) of 2.81 mg/kg/day and a TD50 (rat, strain Donryu, females, in drinking water, site: several sites, sites named in the paper, lesion: papilloma, dosed 52 weeks, study length 60 weeks) of 1.7 mg/kg/day. The TD50 (rat, strain Donryu, females, in drinking water, site: several sites, sites named in the paper, lesion: squamous-cell carcinoma, dosed 52 weeks, study length 60 weeks) was 1.09 mg/kg/day.
With `Nc1ccc(N=Nc2ccccc2)c(N)n1` the TD50 (mouse, strain B6C3F1, females, in feed, site: any site (literature study), lesion: several types, types named in the paper, dosed 80 weeks, study length 105 weeks) was 89.7 mg/kg/day, the TD50 (mouse, strain B6C3F1, females, in feed, site: liver, lesion: hepatocellular adenoma + hepatocellular carcinoma + neoplastic nodule, dosed 80 weeks, study length 105 weeks) was 71.1 mg/kg/day and the TD50 (mouse, strain B6C3F1, females, in feed, site: liver, lesion: hepatocellular adenoma + hepatocellular carcinoma, dosed 80 weeks, study length 105 weeks) was 71.1 mg/kg/day. The TD50 (mouse, strain B6C3F1, females, in feed, site: liver, lesion: hepatocellular carcinoma, dosed 80 weeks, study length 105 weeks) was 132 mg/kg/day, the TD50 (mouse, strain B6C3F1, females, in feed, site: lung, lesion: alveolar/bronchiolar adenoma + alveolar/bronchiolar carcinoma, dosed 80 weeks, study length 105 weeks) was 4650 mg/kg/day and the TD50 (mouse, strain B6C3F1, males, in feed, site: any site (literature study), lesion: several types, types named in the paper, dosed 80 weeks, study length 105 weeks) was 496 mg/kg/day (inactive). It also gave a TD50 (mouse, strain B6C3F1, males, in feed, site: liver, lesion: hepatocellular adenoma + hepatocellular carcinoma + neoplastic nodule, dosed 80 weeks, study length 105 weeks) of 811 mg/kg/day, a TD50 (mouse, strain B6C3F1, males, in feed, site: lung, lesion: alveolar/bronchiolar adenoma + alveolar/bronchiolar carcinoma, dosed 80 weeks, study length 105 weeks) of 1300 mg/kg/day and a TD50 (rat, strain Fischer 344, females, in feed, site: colon, lesion: adenocarcinoma, NOS, dosed 78 weeks, study length 105 weeks) of 687 mg/kg/day. It also gave a TD50 (rat, strain Fischer 344, males, in feed, site: colon + rectum, lesion: adenocarcinoma, NOS + adenoma, NOS, dosed 78 weeks, study length 104 weeks) of 303 mg/kg/day, a TD50 (rat, strain Fischer 344, males, in feed, site: colon + rectum, lesion: adenocarcinoma, NOS, dosed 78 weeks, study length 104 weeks) of 333 mg/kg/day and a TD50 (rat, strain Fischer 344, males, in feed, site: liver, lesion: hepatocellular adenoma + hepatocellular carcinoma + neoplastic nodule, dosed 78 weeks, study length 104 weeks) of 2170 mg/kg/day.
Molecule `CC1CN(N=O)CC(C)N1N=O` (stereo not drawn) has a TD50 (hamster, strain Syrian Golden, males, by gavage, site: any site (literature study), lesion: several types, types named in the paper, dosed 35 weeks, study length 76 weeks) of 0.932 mg/kg/day, a TD50 (hamster, strain Syrian Golden, males, by gavage, site: forestomach, lesion: papilloma, dosed 35 weeks, study length 76 weeks) of 3.1 mg/kg/day and a TD50 (hamster, strain Syrian Golden, males, by gavage, site: liver, lesion: angiosarcoma, dosed 35 weeks, study length 76 weeks) of 8.3 mg/kg/day. It also gave a TD50 (hamster, strain Syrian Golden, males, by gavage, site: lung, lesion: adenoma, dosed 35 weeks, study length 76 weeks) of 6.04 mg/kg/day.
Molecule `CCCCC(CC)COC(=O)CCCCC(=O)OCC(CC)CCCC` (stereo not drawn) has a TD50 (mouse, strain B6C3F1, females, in feed, site: liver, lesion: hepatocellular adenoma + hepatocellular carcinoma + neoplastic nodule, dosed 103 weeks, study length 105 weeks) of 3840 mg/kg/day, a TD50 (mouse, strain B6C3F1, females, in feed, site: liver, lesion: hepatocellular adenoma + hepatocellular carcinoma, dosed 103 weeks, study length 105 weeks) of 3840 mg/kg/day and a TD50 (mouse, strain B6C3F1, females, in feed, site: liver, lesion: hepatocellular carcinoma, dosed 103 weeks, study length 105 weeks) of 3050 mg/kg/day. It also gave a TD50 (mouse, strain B6C3F1, males, in feed, site: liver, lesion: hepatocellular adenoma + hepatocellular carcinoma + neoplastic nodule, dosed 103 weeks, study length 104 weeks) of 5330 mg/kg/day, a TD50 (mouse, strain B6C3F1, males, in feed, site: liver, lesion: hepatocellular adenoma + hepatocellular carcinoma, dosed 103 weeks, study length 104 weeks) of 5330 mg/kg/day and a TD50 (mouse, strain B6C3F1, males, in feed, site: liver, lesion: hepatocellular adenoma, dosed 103 weeks, study length 104 weeks) of 9040 mg/kg/day. For the same molecule, the TD50 (mouse, strain B6C3F1, males, in feed, site: lung, lesion: alveolar/bronchiolar adenoma + alveolar/bronchiolar carcinoma, dosed 103 weeks, study length 104 weeks) was 11700 mg/kg/day, the carcinogen call (rat, strain Fischer 344, females, in feed, site: any site (literature study), lesion: several types, types named in the paper, dosed 103 weeks, study length 105 weeks) was “negative (inactive)” and the TD50 (rat, strain Fischer 344, females, in feed, site: liver, lesion: hepatocellular adenoma + hepatocellular carcinoma + neoplastic nodule, dosed 103 weeks, study length 105 weeks) was 14500 mg/kg/day. For the same molecule, the carcinogen call (rat, strain Fischer 344, males, in feed, site: any site (literature study), lesion: several types, types named in the paper, dosed 103 weeks, study length 104 weeks) was “negative (inactive)”.
